In data set [1] the test system is human leukocyte (WBC) cells. As to the kind of experiment: Stimulation and proliferation of leukocytes, Alamar Blue. Format: cell-based. The following applies: compared to untreated positive control cells; Alamar Blue.
The subject of data set [2] is human red blood cells (RBC). As to the kind of experiment: in vitro. Format: cell-based. The following applies: hemolytic assay, concentration at 50% hemolysis, 1 hour at 37° C.

No end group written: not given here.

In the case of “MPKWKVFKKIEKVGRNIRNGIVKAGPAIAVLGEAKALG-NH2 [P12, reference compound]”, the “stimulatory and/or inhibitory action on growth of human leukocyte (WBC) cells” value in data set [1] is “stimulatory (and/or proliferative) at all concentrations through 500 μg/ml”. Further, in data set [2], the LD50 entry is listed as “> (> indicates greater than 1000)”.
